Consider five compounds from article PMC8745178, “Methyl 2-Halo-4-Substituted-5-Sulfamoyl-Benzoates as High Affinity and Selective Inhibitors of Carbonic Anhydrase IX” (International Journal of Molecular Sciences, 2021).

One data set concerns the target CAVB (Homo sapiens, UniProt Q9Y2D0). Description: fluorescent thermal shift assay (FTSA), CAVB. It is filed as binding. Particulars: 37 °C; for ΔGintr CAVB: converted from Kd_intr, independent of pH; for ΔGobs CAVB: converted from Kd_obs, pH 7.0, FTSA.
The target in another data set is CAIV (Homo sapiens, UniProt P22748). Description: fluorescent thermal shift assay (FTSA), CAIV. It is filed as binding. The settings on record: 37 °C; for ΔGintr CAIV: converted from Kd_intr, independent of pH; for ΔGobs CAIV: converted from Kd_obs, pH 7.0, FTSA.
Another data set concerns the target CAXIV (Homo sapiens, UniProt Q9ULX7). Description: fluorescent thermal shift assay (FTSA), CAXIV. In kind it is binding. The settings on record: 37 °C; for ΔGintr CAXIV: converted from Kd_intr, independent of pH; for ΔGobs CAXIV: converted from Kd_obs, pH 7.0, FTSA.
The next data set concerns the target CAI (Homo sapiens, UniProt P00915). Description: fluorescent thermal shift assay (FTSA), CAI. In kind it is binding. The settings on record: 37 °C; for ΔGintr CAI: converted from Kd_intr, independent of pH; for ΔGobs CAI: converted from Kd_obs, pH 7.0, FTSA.
For the next data set, the target named is CAVI (Homo sapiens, UniProt P23280). Kind of data set: fluorescent thermal shift assay (FTSA), CAVI. The settings on record: 37 °C; for ΔGintr CAVI: converted from Kd_intr, independent of pH; for ΔGobs CAVI: converted from Kd_obs, pH 7.0, FTSA. In kind it is binding.
Another data set deals with CAVII (Homo sapiens, UniProt P43166). Kind of data set: fluorescent thermal shift assay (FTSA), CAVII. It is filed as binding. The settings on record: 37 °C; for ΔGobs CAVII: converted from Kd_obs, pH 7.0, FTSA; for ΔGintr CAVII: converted from Kd_intr, independent of pH.
The target of a further data set is CAII (Homo sapiens, UniProt P00918). Description: fluorescent thermal shift assay (FTSA), CAII. It is filed as binding. The settings on record: 37 °C; for ΔGintr CAII: converted from Kd_intr, independent of pH; for ΔGobs CAII: converted from Kd_obs, pH 7.0, FTSA.
In another data set the target is CAXIII (Homo sapiens, UniProt Q8N1Q1). Description: fluorescent thermal shift assay (FTSA), CAXIII. It is filed as binding. The settings on record: 37 °C; for ΔGintr CAXIII: converted from Kd_intr, independent of pH; for ΔGobs CAXIII: converted from Kd_obs, pH 7.0, FTSA.
The next data set has as its target CAIX (Homo sapiens, UniProt Q16790). Kind of data set: fluorescent thermal shift assay (FTSA), CAIX. In kind it is binding. The settings on record: for ΔGobs CAIX: pH 7.
Data set [1] in a line: determination of pKa of the sulfonamide group by UV-VIS spectra at various pH. It is filed as physicochemical. Particulars: for f RSO2NH-, fraction of deprotonated sulfonamide: at pH 7.0, calculated from pKa; for pKa: calculated from spectra at various pH, 37 °C.
The next data set addresses CAVA (Homo sapiens, UniProt P35218). Description: fluorescent thermal shift assay (FTSA), CAVA. It is filed as binding. The settings on record: 37 °C; for ΔGintr CAVA: converted from Kd_intr, independent of pH; for ΔGobs CAVA: converted from Kd_obs, pH 7.0, FTSA.
The next data set concerns the target CAIII (Homo sapiens, UniProt P07451). Kind of data set: fluorescent thermal shift assay (FTSA), CAIII. It is filed as binding. Particulars: 37 °C; for ΔGintr CAIII: converted from Kd_intr, independent of pH; for ΔGobs CAIII: converted from Kd_obs, pH 7.0, FTSA.
Another data set concerns the target CAXII (Homo sapiens, UniProt O43570). Description: fluorescent thermal shift assay (FTSA), CAXII. It is filed as binding. Particulars: 37 °C.

Chain of CAXIII (Q8N1Q1 whole entry): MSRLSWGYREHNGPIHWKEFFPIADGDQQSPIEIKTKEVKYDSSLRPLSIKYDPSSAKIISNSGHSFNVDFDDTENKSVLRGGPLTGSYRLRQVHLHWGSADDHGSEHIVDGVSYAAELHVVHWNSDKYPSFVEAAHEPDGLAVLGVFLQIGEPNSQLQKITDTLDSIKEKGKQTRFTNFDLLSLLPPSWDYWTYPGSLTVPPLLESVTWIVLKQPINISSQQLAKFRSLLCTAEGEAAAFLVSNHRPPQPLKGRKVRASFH
Chain of CAI (P00915 whole entry): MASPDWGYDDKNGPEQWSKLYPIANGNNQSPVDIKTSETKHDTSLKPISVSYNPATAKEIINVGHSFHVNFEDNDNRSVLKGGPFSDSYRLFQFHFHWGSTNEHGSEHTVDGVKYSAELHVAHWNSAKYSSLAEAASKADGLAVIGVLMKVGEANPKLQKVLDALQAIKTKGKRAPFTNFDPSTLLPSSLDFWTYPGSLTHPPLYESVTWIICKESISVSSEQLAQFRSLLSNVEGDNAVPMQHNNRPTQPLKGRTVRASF
Chain of CAXIV (Q9ULX7 16-337): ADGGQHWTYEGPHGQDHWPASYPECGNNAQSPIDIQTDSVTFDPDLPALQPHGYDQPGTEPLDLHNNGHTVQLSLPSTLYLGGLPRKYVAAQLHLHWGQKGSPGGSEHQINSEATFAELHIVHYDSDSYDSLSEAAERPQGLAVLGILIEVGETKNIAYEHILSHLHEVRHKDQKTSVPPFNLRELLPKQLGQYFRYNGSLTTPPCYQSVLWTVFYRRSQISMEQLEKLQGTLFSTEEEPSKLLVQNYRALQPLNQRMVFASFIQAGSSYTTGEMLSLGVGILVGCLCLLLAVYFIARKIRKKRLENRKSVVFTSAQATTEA
Chain of CAIII (P07451 whole entry): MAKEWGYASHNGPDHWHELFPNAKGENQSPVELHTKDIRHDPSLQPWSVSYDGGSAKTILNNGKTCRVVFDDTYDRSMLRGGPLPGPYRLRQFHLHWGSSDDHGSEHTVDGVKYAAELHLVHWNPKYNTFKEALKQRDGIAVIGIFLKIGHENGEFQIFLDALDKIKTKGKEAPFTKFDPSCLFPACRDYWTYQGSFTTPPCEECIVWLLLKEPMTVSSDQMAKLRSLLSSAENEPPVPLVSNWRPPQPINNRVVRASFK
Chain of CAIV (P22748 19-312): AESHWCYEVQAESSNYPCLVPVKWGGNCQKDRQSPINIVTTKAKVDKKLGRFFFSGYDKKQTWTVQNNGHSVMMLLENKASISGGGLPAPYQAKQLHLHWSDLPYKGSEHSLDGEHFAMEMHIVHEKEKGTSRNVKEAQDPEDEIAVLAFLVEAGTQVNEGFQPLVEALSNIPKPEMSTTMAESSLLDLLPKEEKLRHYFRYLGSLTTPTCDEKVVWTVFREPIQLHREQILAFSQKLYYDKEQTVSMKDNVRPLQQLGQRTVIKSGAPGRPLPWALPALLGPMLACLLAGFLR
Chain of CAVI (P23280 18-308): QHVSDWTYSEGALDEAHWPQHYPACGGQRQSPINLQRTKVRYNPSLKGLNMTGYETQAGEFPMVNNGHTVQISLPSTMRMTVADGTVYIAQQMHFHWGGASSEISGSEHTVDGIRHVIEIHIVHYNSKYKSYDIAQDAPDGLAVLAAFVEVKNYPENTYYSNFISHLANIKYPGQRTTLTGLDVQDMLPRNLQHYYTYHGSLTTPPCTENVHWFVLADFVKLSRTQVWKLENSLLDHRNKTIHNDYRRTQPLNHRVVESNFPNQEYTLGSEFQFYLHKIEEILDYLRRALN
Chain of CAVII (P43166 whole entry): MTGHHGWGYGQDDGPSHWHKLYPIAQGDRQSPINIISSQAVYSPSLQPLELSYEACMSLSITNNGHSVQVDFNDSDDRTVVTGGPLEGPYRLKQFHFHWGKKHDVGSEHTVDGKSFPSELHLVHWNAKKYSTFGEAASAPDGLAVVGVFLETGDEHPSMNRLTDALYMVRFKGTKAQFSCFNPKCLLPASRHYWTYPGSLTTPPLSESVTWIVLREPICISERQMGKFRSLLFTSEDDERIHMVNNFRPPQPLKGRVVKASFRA
Chain of CAVA (P35218 39-305): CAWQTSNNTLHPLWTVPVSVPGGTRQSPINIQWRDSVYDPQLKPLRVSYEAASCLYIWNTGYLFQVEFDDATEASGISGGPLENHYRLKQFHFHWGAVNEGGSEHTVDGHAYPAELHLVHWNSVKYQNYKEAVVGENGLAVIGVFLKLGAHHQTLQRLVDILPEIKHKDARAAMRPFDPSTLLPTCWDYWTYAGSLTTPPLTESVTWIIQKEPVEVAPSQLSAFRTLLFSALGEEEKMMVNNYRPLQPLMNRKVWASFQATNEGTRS
Chain of CAVB (Q9Y2D0 34-317): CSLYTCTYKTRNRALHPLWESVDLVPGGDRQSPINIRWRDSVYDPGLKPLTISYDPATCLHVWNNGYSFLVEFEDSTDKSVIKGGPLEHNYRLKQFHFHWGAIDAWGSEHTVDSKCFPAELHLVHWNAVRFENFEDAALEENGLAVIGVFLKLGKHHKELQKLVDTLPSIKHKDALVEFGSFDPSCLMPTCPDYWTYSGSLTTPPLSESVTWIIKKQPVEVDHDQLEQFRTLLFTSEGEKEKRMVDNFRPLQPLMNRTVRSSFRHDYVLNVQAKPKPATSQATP
Chain of CAXII (O43570 25-354): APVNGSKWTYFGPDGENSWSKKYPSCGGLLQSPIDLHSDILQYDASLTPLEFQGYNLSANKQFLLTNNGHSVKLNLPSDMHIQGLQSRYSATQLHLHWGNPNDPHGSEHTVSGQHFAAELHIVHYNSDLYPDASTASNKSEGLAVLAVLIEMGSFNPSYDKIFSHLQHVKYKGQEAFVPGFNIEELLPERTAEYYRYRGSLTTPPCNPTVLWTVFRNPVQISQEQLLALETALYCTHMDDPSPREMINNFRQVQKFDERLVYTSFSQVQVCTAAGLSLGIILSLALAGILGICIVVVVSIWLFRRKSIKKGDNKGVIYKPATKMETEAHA

The pKa is the negative logarithm of the acid dissociation constant. Turning to `COC(=O)c1cc(S(N)(=O)=O)c(Cl)cc1SCCc1ccccc1` [Compound 5d, Methyl 4-chloro-2-(2-phenylethylsulfanyl)-5-sulfamoylbenzoate], at CAVB, the “ΔGintr CAVB” value was -15.6 kcal/mol and the “ΔGobs CAVB” value was -11.9 kcal/mol. Also, on CAIV, the “ΔGintr CAIV” value was -12.5 kcal/mol and the “ΔGobs CAIV” value is -8.48 kcal/mol. For the same compound, at CAXIV, the “ΔGintr CAXIV” value was -14.9 kcal/mol and the “ΔGobs CAXIV” value is -11 kcal/mol. Besides, on CAI, the “ΔGintr CAI” value is -11.1 kcal/mol and the “ΔGobs CAI” value is -7.74 kcal/mol. Also, on CAVI, the “ΔGintr CAVI” value is -13.4 kcal/mol and the “ΔGobs CAVI” value is -8.63 kcal/mol. In addition, the “ΔGobs CAVII” value at CAVII was -10.8 kcal/mol. Also, at CAII, the “ΔGintr CAII” value was -14.5 kcal/mol and the “ΔGobs CAII” value was -10.7 kcal/mol. Moreover, on CAXIII, the “ΔGintr CAXIII” value is -14.9 kcal/mol and the “ΔGobs CAXIII” value was -11.5 kcal/mol. For the same compound, at CAIX, the “ΔGintr CAIX” value is -15.3 kcal/mol and the “ΔGobs CAIX” value is -11.2 kcal/mol. Moreover, in [1], the “f RSO2NH-, fraction of deprotonated sulfonamide” value (“f RSO2NH-, fraction” below) is reported as 0.5% and the pKa is 9.3.
Consider `COC(=O)c1cc(S(N)(=O)=O)c(Cl)cc1S(=O)(=O)C1CCCCC1` [Compound 9b, Methyl 4-chloro-2-cyclohexylsulfonyl-5-sulfamoyl-benzoate], for which, on CAVB, the “ΔGintr CAVB” value was -15.1 kcal/mol and the “ΔGobs CAVB” value was -13 kcal/mol. Besides, on CAIV, the “ΔGintr CAIV” value was -12 kcal/mol and the “ΔGobs CAIV” value is -9.51 kcal/mol. Also, at CAXIV, the “ΔGintr CAXIV” value is -15.4 kcal/mol and the “ΔGobs CAXIV” value is -13 kcal/mol. On CAI, the “ΔGintr CAI” value is -12 kcal/mol and the “ΔGobs CAI” value was -10.2 kcal/mol. Also, at CAVI, the “ΔGintr CAVI” value is -13.7 kcal/mol and the “ΔGobs CAVI” value was -10.5 kcal/mol. Further, on CAVII, the “ΔGintr CAVII” value was -16.2 kcal/mol and the “ΔGobs CAVII” value was -13.8 kcal/mol. In addition, at CAII, the “ΔGintr CAII” value was -15.3 kcal/mol and the “ΔGobs CAII” value was -13 kcal/mol. At CAXIII, the “ΔGintr CAXIII” value was -14 kcal/mol and the “ΔGobs CAXIII” value was -12.1 kcal/mol. Further, at CAIX, the “ΔGobs CAIX” value is -12.8 kcal/mol. For the same compound, at CAVA, the “ΔGintr CAVA” value is -10.9 kcal/mol and the “ΔGobs CAVA” value was -8.94 kcal/mol. For the same compound, in data set [1], the “f RSO2NH-, fraction” value is given as 5.9% and the pKa was 8.2.
With `COC(=O)c1cc(S(N)(=O)=O)c(Br)cc1Br` [Compound 2, Methyl 2,4-dibromo-5-sulfamoyl-benzoate], on CAVB, the “ΔGintr CAVB” value is -13.6 kcal/mol and the “ΔGobs CAVB” value is -10.6 kcal/mol. Also, on CAXIV, the “ΔGintr CAXIV” value is -13.6 kcal/mol and the “ΔGobs CAXIV” value is -10.5 kcal/mol. At CAIII, the “ΔGintr CAIII” value is at least -8.7 kcal/mol and the “ΔGobs CAIII” value was at least -5.26 kcal/mol. Moreover, on CAI, the “ΔGintr CAI” value was -9.27 kcal/mol and the “ΔGobs CAI” value was -6.67 kcal/mol. Besides, at CAVI, the “ΔGintr CAVI” value was -13.3 kcal/mol and the “ΔGobs CAVI” value is -9.3 kcal/mol. Further, at CAVII, the “ΔGintr CAVII” value is -13.5 kcal/mol and the “ΔGobs CAVII” value was -10.3 kcal/mol. Besides, at CAII, the “ΔGintr CAII” value is -13 kcal/mol and the “ΔGobs CAII” value is -9.99 kcal/mol. Moreover, the “ΔGintr CAXII” value on CAXII (converted from Kd_intr, independent of pH) was -12.3 kcal/mol. The “ΔGobs CAXII” value on CAXII (converted from Kd_obs, pH 7.0, FTSA) is -9.2 kcal/mol. At CAXIII, the “ΔGintr CAXIII” value was -12.8 kcal/mol and the “ΔGobs CAXIII” value was -10.2 kcal/mol. Further, at CAIX, the “ΔGintr CAIX” value was -13.2 kcal/mol and the “ΔGobs CAIX” value was -9.85 kcal/mol. Besides, in data set [1], the “f RSO2NH-, fraction” value is recorded as 1.6% and the pKa is 8.8.
Consider `COC(=O)c1cc(S(N)(=O)=O)c(SC2CCCCCCCCCCC2)cc1Cl` [Compound 3e, Methyl 2-chloro-4-(cyclododecylsulfanyl)-5-sulfamoylbenzoate], for which, at CAVB, the “ΔGintr CAVB” value was -10 kcal/mol and the “ΔGobs CAVB” value was -5.93 kcal/mol. At CAIV, the “ΔGintr CAIV” value is -14 kcal/mol and the “ΔGobs CAIV” value is -9.51 kcal/mol. Besides, on CAXIV, the “ΔGintr CAXIV” value is -14.8 kcal/mol and the “ΔGobs CAXIV” value was -10.5 kcal/mol. Further, at CAIII, the “ΔGintr CAIII” value is at least -9.82 kcal/mol and the “ΔGobs CAIII” value is at least -5.26 kcal/mol. Besides, at CAI, the “ΔGintr CAI” value is -10.7 kcal/mol and the “ΔGobs CAI” value is -7 kcal/mol. Also, at CAVI, the “ΔGintr CAVI” value is -13.3 kcal/mol and the “ΔGobs CAVI” value was -8.08 kcal/mol. In addition, on CAVII, the “ΔGintr CAVII” value is -12 kcal/mol and the “ΔGobs CAVII” value was -7.77 kcal/mol. Besides, on CAII, the “ΔGintr CAII” value is -13.3 kcal/mol and the “ΔGobs CAII” value was -9.08 kcal/mol. Also, at CAXIII, the “ΔGintr CAXIII” value was -14.5 kcal/mol and the “ΔGobs CAXIII” value was -10.8 kcal/mol. Further, at CAIX, the “ΔGintr CAIX” value is -17.7 kcal/mol and the “ΔGobs CAIX” value was -13.3 kcal/mol. At CAVA, the “ΔGintr CAVA” value was at least -9.2 kcal/mol and the “ΔGobs CAVA” value was at least -5.26 kcal/mol. Besides, in [1], the “f RSO2NH-, fraction” value is on record as 0.3% and the pKa is 9.6.
Regarding `COC(=O)c1cc(S(N)(=O)=O)c(SCc2ccccc2)cc1Cl` [Compound 3c, Methyl 4-(benzylsulfanyl)-2-chloro-5-sulfamoylbenzoate], at CAVB, the “ΔGintr CAVB” value is -11.5 kcal/mol and the “ΔGobs CAVB” value is -7.53 kcal/mol. Moreover, at CAXIV, the “ΔGintr CAXIV” value is -14.6 kcal/mol and the “ΔGobs CAXIV” value was -10.5 kcal/mol. Moreover, on CAIII, the “ΔGintr CAIII” value is -10.3 kcal/mol and the “ΔGobs CAIII” value is -5.81 kcal/mol. Moreover, at CAI, the “ΔGintr CAI” value is -10.9 kcal/mol and the “ΔGobs CAI” value is -7.31 kcal/mol. On CAVI, the “ΔGintr CAVI” value is -14.2 kcal/mol and the “ΔGobs CAVI” value was -9.15 kcal/mol. At CAVII, the “ΔGintr CAVII” value was -13.8 kcal/mol and the “ΔGobs CAVII” value is -9.68 kcal/mol. In addition, on CAII, the “ΔGintr CAII” value was -13.9 kcal/mol and the “ΔGobs CAII” value is -9.87 kcal/mol. Moreover, on CAXIII, the “ΔGintr CAXIII” value is -14.1 kcal/mol and the “ΔGobs CAXIII” value was -10.5 kcal/mol. In addition, at CAIX, the “ΔGintr CAIX” value was -16.4 kcal/mol and the “ΔGobs CAIX” value is -12.1 kcal/mol. Besides, at CAVA, the “ΔGintr CAVA” value was at least -9.06 kcal/mol and the “ΔGobs CAVA” value was at least -5.26 kcal/mol. Further, in data set [1], the “f RSO2NH-, fraction” value is 0.3% and the pKa was 9.5.
